What was measured:
Assay in all cases: F2FlAsH fluorescence anisotropy, nucleotide titration
Assay type in all cases: binding
[1] = tested on: T1, α13 + βγM (F2FlAsH-labeled); details: pH 7.8, 28°C, 2 mM MgCl2, 1 mM EDTA, 14 h; 15 nM F2FlAsH allosteric label
T1 construct: gene GNA13; wild-type alpha (Kerafast, purified by GST-Ric8 association), reconstituted with beta1 / StrepII- and CCKACC-tagged gamma2 from Sf9
Text: F2FlAsH fluorescence anisotropy, nucleotide titration on α13 + βγM (F2FlAsH-labeled)

[2] = tested on: T2, αi1βγM (F2FlAsH-labeled); details: pH 7.8, 28°C, 2 mM MgCl2, 1 mM EDTA, 2 h; 5 nM F2FlAsH allosteric label, ~40 nM nucleotide-depleted heterotrimer
T2 construct: gene GNAI1; wild-type alpha co-expressed in Sf9 with beta1 / StrepII- and CCKACC-tagged gamma2; nucleotide-depleted heterotrimer
Text: F2FlAsH fluorescence anisotropy, nucleotide titration on αi1βγM (F2FlAsH-labeled)

[3] = tested on: T3, αi2βγM (F2FlAsH-labeled); details: pH 7.8, 28°C, 2 mM MgCl2, 1 mM EDTA, 2 h; 5 nM F2FlAsH allosteric label, ~40 nM nucleotide-depleted heterotrimer
T3 construct: gene GNAI2; wild-type alpha co-expressed in Sf9 with beta1 / StrepII- and CCKACC-tagged gamma2; nucleotide-depleted heterotrimer
Text: F2FlAsH fluorescence anisotropy, nucleotide titration on αi2βγM (F2FlAsH-labeled)

[4] = tested on: T4, αslong + βγM (F2FlAsH-labeled); details: pH 7.8, 28°C, 2 mM MgCl2, 1 mM EDTA, 6 h; 15 nM F2FlAsH allosteric label
T4 construct: gene GNAS; wild-type alpha (Kerafast, purified by GST-Ric8 association), reconstituted with beta1 / StrepII- and CCKACC-tagged gamma2 from Sf9
Text: F2FlAsH fluorescence anisotropy, nucleotide titration on αslong + βγM (F2FlAsH-labeled)

[5] = tested on: T5, αolf + βγM (F2FlAsH-labeled); details: pH 7.8, 28°C, 2 mM MgCl2, 1 mM EDTA, 6 h; 15 nM F2FlAsH allosteric label
T5 construct: gene GNAL; wild-type alpha (Kerafast, purified by GST-Ric8 association), reconstituted with beta1 / StrepII- and CCKACC-tagged gamma2 from Sf9
Text: F2FlAsH fluorescence anisotropy, nucleotide titration on αolf + βγM (F2FlAsH-labeled)

[6] = tested on: T6, αq + βγM (F2FlAsH-labeled); details: pH 7.8, 28°C, 2 mM MgCl2, 1 mM EDTA, 6 h; 15 nM F2FlAsH allosteric label
T6 construct: gene GNAQ; wild-type alpha (Kerafast, purified by GST-Ric8 association), reconstituted with beta1 / StrepII- and CCKACC-tagged gamma2 from Sf9
Text: F2FlAsH fluorescence anisotropy, nucleotide titration on αq + βγM (F2FlAsH-labeled)

[7] = tested on: T7, αi3βγM (F2FlAsH-labeled); details: pH 7.8, 28°C, 2 mM MgCl2, 1 mM EDTA, 2 h; 5 nM F2FlAsH allosteric label, ~40 nM nucleotide-depleted heterotrimer
T7 construct: gene GNAI3; wild-type alpha co-expressed in Sf9 with beta1 / StrepII- and CCKACC-tagged gamma2; nucleotide-depleted heterotrimer
Text: F2FlAsH fluorescence anisotropy, nucleotide titration on αi3βγM (F2FlAsH-labeled)

[8] = tested on: T8, αsshort + βγM (F2FlAsH-labeled); details: pH 7.8, 28°C, 2 mM MgCl2, 1 mM EDTA, 6 h; 15 nM F2FlAsH allosteric label
T8 construct: gene GNAS; wild-type alpha (Kerafast, purified by GST-Ric8 association), reconstituted with beta1 / StrepII- and CCKACC-tagged gamma2 from Sf9
Text: F2FlAsH fluorescence anisotropy, nucleotide titration on αsshort + βγM (F2FlAsH-labeled)

SMILES: Nc1nc2c(ncn2[C@@H]2O[C@H](COP(=O)(O)OP(=O)(O)O)[C@@H](O)[C@H]2O)c(=O)[nH]1 [GDP]
- GDP [1]: 4.98 ± 0.23 -log M
- GDP [2]: 8.19 ± 0.16 -log M
- GDP [3]: 8.17 ± 0.13 -log M
- GDP [4]: 4.72 ± 0.18 -log M
- GDP [5]: 5.00 ± 0.03 -log M
- GDP [6]: 5.87 ± 0.06 -log M
- GDP [7]: 8.08 ± 0.10 -log M
- GDP [8]: 4.85 ± 0.05 -log M

SMILES: Nc1nc2c(ncn2[C@@H]2O[C@H](COP(=O)(O)O)[C@@H](O)[C@H]2O)c(=O)[nH]1 [GMP]
- GMP [2]: 5.89 ± 0.12 -log M
- GMP [3]: 4.45 ± 0.07 -log M
- GMP [5]: < 3 -log M
- GMP [6]: < 3 -log M
- GMP [7]: 5.29 ± 0.13 -log M
- GMP [8]: < 3 -log M

SMILES: Nc1nc2c(ncn2[C@@H]2O[C@H](COP(=O)(O)OP(=O)(O)OP(O)(O)=S)[C@@H](O)[C@H]2O)c(=O)[nH]1 [GTPγS]
- GTPγS [1]: 5.65 ± 0.13 -log M
- GTPγS [3]: 8.02 ± 0.09 -log M
- GTPγS [4]: 7.47 ± 0.09 -log M
- GTPγS [5]: 6.43 ± 0.04 -log M
- GTPγS [6]: 6.27 ± 0.05 -log M
- GTPγS [7]: 7.87 ± 0.06 -log M
- GTPγS [8]: 7.06 ± 0.04 -log M

SMILES: Nc1nc2c(ncn2[C@@H]2O[C@H](COP(=O)(O)OP(=O)(O)NP(=O)(O)O)[C@@H](O)[C@H]2O)c(=O)[nH]1 [GppNHp]
- GppNHp [1]: 5.36 ± 0.14 -log M
- GppNHp [2]: 8.08 ± 0.04 -log M
- GppNHp [3]: 7.84 ± 0.14 -log M
- GppNHp [4]: 6.56 ± 0.07 -log M
- GppNHp [5]: 5.84 ± 0.05 -log M
- GppNHp [6]: 5.96 ± 0.07 -log M
- GppNHp [7]: 7.93 ± 0.07 -log M
- GppNHp [8]: 6.42 ± 0.04 -log M
